# Test system: subjects with insomnia related to major depressive disorder
# Assay: DREAMDD clinical study: subjective sleep and daytime function (IVRS sleep diary)
# Assay type: in vivo, human
# Settings: for Subjective Sleep Latency, Mean (SD) / Subjective Sleep Latency, Median / Subjective Total Sleep Time, Mean (SD) / Subjective Total Sleep Time, Median / Subjective Wake Time After Sleep Onset (WASO), Mean (SD) / Subjective Wake Time After Sleep Onset (WASO), Median: 3 mg nightly + fluoxetine, ITT
# Method: Depression Response to Eszopiclone in Adults With Major Depressive Disorder (DREAMDD): A Randomized, Double-Blind, Placebo-Controlled, Parallel-Group, 8-Week, Safety and Efficacy Study of Eszopiclone 3 mg Compared to Placebo in Subjects with Insomnia Related to Major Depressive Disorder
# This study was a double-blind randomized, placebo-controlled, parallel group study. […] All subjects must satisfy DSM-IV criteria for insomnia related to major depression.
# In addition, subjects were randomized at Visit 3 (end of baseline) to treatment with one of the following nightly (at bedtime): eszopiclone (3 mg) or matching placebo.
# Primary Analysis: The primary analysis was conducted using the ITT population for the primary efficacy variable, mean WASO during the first week of double-blind medication. This endpoint was computed by averaging the daily WASO values obtained via IVRS from Visit 3 to Visit 4. The analysis was conducted using an analysis of variance model (ANOVA) with treatment and site as fixed effects. The analysis was performed on rank-transformed data, using the SAS MIXED procedure. The cumulative distribution function by treatment was plotted.
# Other Secondary Analyses: Analysis of the secondary subjective sleep parameters, the 1, 2, 3, 4, 6, and 8 week post-randomization and double-blind averages of WASO (except week 1 average, which is the primary efficacy endpoint), TST, SL, mean number of awakenings, depth and quality of sleep, daytime alertness, ability to concentrate, physical well-being and ability to function was conducted on rank-transformed data using the same method as for the primary analysis.
# Sleep Diary Test: Patients are to call between 6 a.m. and 10 a.m. and answer the following questions. 1) Did you take study medication last night? 2) What time did you go to bed to go to sleep last night? 3) Did you fall asleep last night? (If No, go to question 10) 4) How long did it take you to fall asleep last night? Hours+Minutes? 5) Last night, did you wake up during the night, after falling asleep? 5a) How many times, did you wake up after falling asleep? 5b) After falling asleep for the first time, how much total time did you spend awake during the night? Hours+Minutes? 6) How long did you sleep last night? Hours+Minutes? 7) What time did you get out of bed to rise for the day? 8) What number best describes the quality of your sleep last night? (0=poor and 10=excellent) 9) How would you describe the depth of your sleep last night? (0=very light and 10=very deep) 10) What number best describes how you generally felt yesterday during the day? (0=very sleepy and 10=wide awake and alert) 11) What number best describes your ability to concentrate or think clearly during the day yesterday (0=poor, 10=excellent) 12) What number best describes your sense of physical well being yesterday? (0=poor, 10=excellent) 13) How would you describe your ability to function during the day yesterday? (0=poor and 10=excellent)
# Methods: Patients (n=545) met DSM-IV criteria for MDD and insomnia, including reported sleep latency (SL)≧30 min (median 73 min), wake time after sleep onset (WASO) ≧45 min (median 90 min), and total sleep time (TST)≦6.5h (median 294 min). All patients received fluoxetine QAM, and were randomly assigned to double-blind treatment with eszopiclone 3 mg or placebo QHS for 8 weeks. Subjective sleep and daytime function were assessed weekly.
# [1] = each treatment week, p<0.03, 3 mg QHS + fluoxetine QAM, 8 weeks
structure (smiles),measurement,setting,value
"CN1CCN(C(=O)OC2c3nccnc3C(=O)N2c2ccc(Cl)cn2)CC1 (single isomer, unassigned; (+)) [Eszopiclone, (+) 6-(5-chloro-2-pyridinyl)-6,7-dihydro-7-oxo-5H-pyrrolo[3,4b]pyrazin-5-yl 4-methylpiperazine-1-carboxylate]","Subjective Sleep Latency, Mean (SD)",Double-Blind Average,53.0 (52.6) Minutes
same,"Subjective Sleep Latency, Median",Double-Blind Average,39.3 min
same,"Subjective Total Sleep Time, Mean (SD)",Double-Blind Average,395.5 (66.9) Minutes
same,"Subjective Total Sleep Time, Median",Double-Blind Average,400.0 min
same,"Subjective Wake Time After Sleep Onset (WASO), Mean (SD)",Double-Blind Average,72.6 (58.7) Minutes
same,"Subjective Wake Time After Sleep Onset (WASO), Median",Double-Blind Average,57.4 min
same,"Subjective Sleep Latency, Mean (SD)",Week 1,62.6 (61.0) Minutes
same,"Subjective Sleep Latency, Median",Week 1,43.3 min
same,"Subjective Total Sleep Time, Mean (SD)",Week 1,375.9 (76.5) Minutes
same,"Subjective Total Sleep Time, Median",Week 1,380.0 min
same,"Subjective Sleep Latency, Mean (SD)",Week 2,45.0 (52.2) Minutes
same,"Subjective Sleep Latency, Median",Week 2,30.0 min
same,"Subjective Total Sleep Time, Mean (SD)",Week 2,393.6 (103.0) Minutes
same,"Subjective Total Sleep Time, Median",Week 2,397.5 min
same,"Subjective Sleep Latency, Mean (SD)",Week 3,54.1 (100.9) Minutes
same,"Subjective Sleep Latency, Median",Week 3,25.0 min
same,"Subjective Total Sleep Time, Mean (SD)",Week 3,397.3 (88.1) Minutes
same,"Subjective Total Sleep Time, Median",Week 3,405.0 min
same,"Subjective Sleep Latency, Mean (SD)",Week 4,40.5 (50.5) Minutes
same,"Subjective Sleep Latency, Median",Week 4,24.2 min
same,"Subjective Total Sleep Time, Mean (SD)",Week 4,395.6 (87.3) Minutes
same,"Subjective Total Sleep Time, Median",Week 4,390.0 min
same,"Subjective Wake Time After Sleep Onset (WASO), Mean (SD)",Week 4,71.4 (80.3) Minutes
same,"Subjective Wake Time After Sleep Onset (WASO), Median",Week 4,42.5 min
same,"Subjective Sleep Latency, Mean (SD)",Week 6,43.8 (77.3) Minutes
same,"Subjective Sleep Latency, Median",Week 6,20.0 min
same,"Subjective Total Sleep Time, Mean (SD)",Week 6,408.5 (84.3) Minutes
same,"Subjective Total Sleep Time, Median",Week 6,420.0 min
same,"Subjective Wake Time After Sleep Onset (WASO), Mean (SD)",Week 6,76.5 (88.1) Minutes
same,"Subjective Wake Time After Sleep Onset (WASO), Median",Week 6,46.3 min
same,"Subjective Sleep Latency, Mean (SD)",Week 8,42.4 (42.3) Minutes
same,"Subjective Sleep Latency, Median",Week 8,30.0 min
same,"Subjective Total Sleep Time, Mean (SD)",Week 8,405.9 (80.6) Minutes
same,"Subjective Total Sleep Time, Median",Week 8,411.4 min
same,"Subjective Wake Time After Sleep Onset (WASO), Mean (SD)",Week 8,63.8 (74.1) Minutes
same,"Subjective Wake Time After Sleep Onset (WASO), Median",Week 8,43.1 min
same,WASO compared to placebo,"Weeks 1, 3-5, and 7-8, p<0.04, 3 mg QHS + fluoxetine QAM",significantly lower
same,ratings in sleep quality and depth compared to placebo,"across the treatment period, p<0.005, 3 mg QHS + fluoxetine QAM",higher ratings
same,sleep latency (SL) compared to placebo,[1],significantly lower
same,total sleep time (TST) compared to placebo,[1],greater
same,improvement in sleep,"patients with depression-related secondary insomnia, co-administration with fluoxetine",rapid and sustained improvement in sleep
same,"ratings of daytime alertness, ability to concentrate, and well-being compared to placebo","p≦0.02, 3 mg QHS + fluoxetine QAM",higher ratings
